Experimental data from patent US11883423B2, “Nucleobase analogue derivatives and their applications” (BOARD OF REGENTS, THE UNIVERSITY OF TEXAS SYSTEM, priority 2014, dated 2024).

Tests used:
[1] = Plasma pharmacokinetics after i.v. injection; assay type: in vivo, C57BL/6 mice; details: 75 mg/kg
Procedure: Healthy female C57BL/6 mice (6-8 weeks) were injected intravenously (i.v.) with Gem-DHA solution at a dose of 75 mg/kg via the tail vein. At pre-determined time intervals (5, 15, 30, 60, 120, and 180 min), 3 mice were euthanized at each time point to collect plasma samples. Gem-DHA was extracted twice using ethyl acetate and analyzed using HPLC. Data were analyzed using the Pharsight WinNonlin software (Sunnyvale, Calif.).

Panc-02 cells = assay: Anti-proliferative activity, MTT assay, Panc-02 cells; assay type: cell-based; details: Mus musculus, Panc02, 24 h
Procedure: (§1) The anti-proliferative activity of Gem-DHA was evaluated in Panc-02, TC-1, Panc-1-Luc, and BxPC-3 cell lines. For Panc-02 and TC-1 cells, cells (1,500/well for Panc-02 and 3,000/well for TC-1) were seeded in 96-well plates and incubated at 37° C. and 5% CO2 overnight. The cells were then treated with various concentrations of Gem-DHA or other compounds for 24 h. For BxPC-3 and Panc-1-Luc cells, 3,000 and 1,000 cells/well were used, respectively, and cells were co-incubated with the Gem-DHA for 72 h. Cell viability was determined using an MTT assay as previously described (Naguib YW et al. Mol Pharm. 2014, 11(4), 1239-1249). Gemcitabine HCl was dissolved in cell culture medium, whereas Gem-DHA and DHA were dissolved in dimethylsulfoxide (DMSO). The values of IC50 were calculated using GraphPad Prism (GraphPad software, Inc., La Jolla, CA).

[2] = Aqueous solubility by the indirect method (IPM/water partitioning, Beall et al.); assay type: physicochemical
Procedure: The aqueous solubility of Gem-DHA was determined following an indirect method according to Beall et al. with minimal modifications (Beall HD et al. International Journal of Pharmaceutics. 1993, 93, 37-47). Briefly, an excess amount of Gem-DHA was added to 100 μl of IPM in a crimp-sealed amber glass vials under nitrogen and was stirred vigorously at room temperature for 24 h, protected from light. After the stirring was stopped, the mixture was left to stand for an additional 24 h for equilibration. The content of the vial was centrifuged (14,000 rpm, 10 min) and the supernatant was transferred into a different tube. Aliquots of the saturated IPM solution were used to measure the Gem-DHA concentration before partitioning (A1) using HPLC (after proper dilution with methanol). Then, water was added to the IPM saturated solution in a volume ratio of 10:1. The two phases were mixed by vortexing for 5 min, left to stand for 15 min, then centrifuged (14,000 rpm, 15 min) to collect the IPM layer. Gem-DHA concentration in the IPM layer (A2) was again measured using HPLC after partitioning. The following equation was used to calculate the partition coefficient (KIPM/water) (Beall HD et al. International Journal of Pharmaceutics. 1993, 93, 37-47):
[formula] where Vwater is the volume of the water phase and VIPM is the volume of IPM. The value of (Vwater/VIPM) was 10.
The aqueous solubility (Sw) of Gem-DHA was determined using the following equation (Id.):
[formula] where SIPM is the solubility of Gem-DHA in IPM.
In order to validate the method of Beall et al. (Id.), the aqueous solubility of 4-(N)-stearoyl gemcitabine, another lipophilic gemcitabine conjugate (Sloat BR et al. Int J Pharm. 2011, 409(1-2), 278-288), which is stable in water, was measured directly (i.e., direct method) or using the indirect method reported by Beall et al. (Beall HD et al. International Journal of Pharmaceutics. 1993, 93, 37-47).

TC-1 tumors = assay: Antitumor activity against s.c. TC-1 tumors in C57BL/6 mice; assay type: in vivo; details: i.p., 50 mg/kg, every 3-4 days, 4 times
Procedure: Therefore, the in vivo antitumor activity of Gem-DHA against TC-1 tumor cells was also evaluated. In the mouse model with TC-1 tumors, 5×10^5 cells were s.c. injected in the right flank of female C57BL/6 mice (Charles River, 6-8 weeks). Eight days later, mice were randomized into 3 groups (n=5-6) and i.p. injected with Gem-DHA (50 mg/kg, −0.087 mmole/kg), gemcitabine HCl (26.1 mg/kg, ˜0.087 mmole/kg), or left untreated as a control. Treatments were repeated every 3-4 days for a total of 4 times. Tumor growth was monitored and tumor volume was calculated as mentioned above. […] Shown in FIG. 14B are the body weights of TC-1 tumor-bearing mice after they were treated with multiple doses of Gem-DHA.

[3] = system: TC-1 mouse lung cancer cells; assay: Anti-proliferative activity, MTT assay, TC-1 cells; assay type: cell-based; details: 24 h
Procedure: as §1

[4] = Chemical stability in Tween 80/ethanol/water formulation (HPLC); assay type: physicochemical; details: for First order degradation rate constant k: aqueous formulation, mean ± SD (n=3)
Procedure: Gem-DHA was solubilized into an aqueous formulation that contains Tween 80 (10%, w/v) and ethanol (5.5%, v/v) (referred to as the Tween 80/ethanol/water formulation) to evaluate its in vivo activity. The stability of Gem-DHA in this formulation was evaluated in crimp-sealed amber glass vials under nitrogen atmosphere. Briefly, 150 μl of the Gem-DHA aqueous solution at a concentration of about 7 mg/ml were added to the amber glass vials under nitrogen atmosphere, and the vials were crimp-sealed with aluminum seals over rubber lids. At predetermined time intervals, 10 μl of the solution were diluted with 90 μl of methanol and mixed, and the concentration was measured using HPLC. Stability tests were carried out at room temperature (˜22° C.) or 4° C. in triplicates. Vitamin E was added in the formulation to a final concentration of 0.01% or 0.04% (v/v) to evaluate the effect of vitamin E on the chemical stability of Gem-DHA.
The degradation was slower at 4° C. […] Indeed, it was reported that a higher concentration of vitamin E may not necessarily have a higher anti-oxidative activity, as higher concentrations may sometimes lead to opposite effects (Owen S C. In: Rowe R C, Sheskey P J, Owen S C Eds, Handbook of Pharmaceutical Excipients. London, Pharmaceutical Press, 2006; 32-35).
To study the effect of temperature on the chemical stability of Gem-DHA, the Gem-DHA formulation in crimp-sealed vials under nitrogen was stored in room temperature, 37° C., or 60° C., protected from light. Sampling and analyses were carried out at pre-determined time points as described above. The first order degradation reaction equation was used to calculate the values of the reaction rate (k) at different temperatures (Table 2). An Arrhenius plot was constructed by plotting the In k values vs. 1/T to calculate the activation energy (Ea, in kcal/mol). The activation energy of the chemical reaction was calculated to be 12.86 kcal/mol (FIG. 2C).

In the case of `CC/C=C\C/C=C\C/C=C\C/C=C\C/C=C\C/C=C\CCC(=O)Nc1ccn(C2OC(CO)C(O)C2(F)F)c(=O)n1` (stereo not shown) [Gem-DHA, 4-(N)-Docosahexaenoyl Difluorodeoxycytidine], the “Elimination from plasma (model)” value [1] is reported as “follows a bi-exponential model”, the IC50 (Panc-02 cells) is reported as 34 pM and the “KIPM/water (partition coefficient)” value [2] is reported as 194.72 ± 111.3. For the same compound, the “Stability in IPM, remaining” value ([2]; buffer, 48 h) was greater than 92%, the “Control of growth of s.c. TC-1 tumors” value (TC-1 tumors) was “more effective than a molar equivalent dose of gemcitabine HCl” and the “Inhibition of tumor cell growth (comparison)” value [3] was “more effective than gemcitabine alone or the physical mixture of gemcitabine and DHA”. The “Degradation in Tween 80/ethanol/water formulation” value ([4]; 4° C., compared with room temperature) was “slower”, the “Activation energy (Ea) of the degradation” value ([4]; Arrhenius plot of ln k vs 1/T) was 12.86 kcal/mol and the “First order degradation rate constant k” value ([4]; 37° C.) was 0.042 ± 0.005 h⁻¹. The “First order degradation rate constant k” value ([4]; 60° C.) was 0.106 ± 0.009 h⁻¹, the “First order degradation rate constant k” value ([4]; room temperature (~22° C.)) was 0.018 ± 0.001 h⁻¹ and the “Degradation in Tween 80/ethanol/water formulation” value ([4]; room temperature (~22° C.)) was “found to degrade at room temperature”. For the same compound, the “Degradation in Tween 80/ethanol/water formulation” value ([4]; with vitamin E 0.01% or 0.04%, 0.01% more effective than 0.04%) was “slower in the presence of vitamin E”.
